Reference: paper PMC5701912, “Arylacetamide Deacetylase Is Involved in Vicagrel Bioactivation in Humans” (Frontiers in Pharmacology, 2017)

What was measured:
CES2 [1] = assay: Contribution of CES2 to vicagrel hydrolase activity in HIM (RAF method); type: in vitro ADME, human
Source text: (§1) The RAF method was applied as the ratio of activity values to evaluate the contribution of CES2 and AADAC to vicagrel hydrolysis in HIM. […] The following formulas were used to predict the vicagrel hydrolase activities of CES2 (VCES2, HIM), and AADAC (VAADAC, HIM) in HIM:
(2) VCES2, HIM = Vrec−CES2 × RAFCES2, HIM
(§2) V rec-CES2 and V rec-AADAC are the vicagrel hydrolase activities of recombinant CES2 and AADAC, respectively. The following equations were used to calculate the contributions of CES2 and AADAC to vicagrel hydrolase activities in HIM:
(4) CES2 in HIM(%) = (VCES2, HIM/VHIM) × 100
(§3) where the V HIM value is the observed vicagrel hydrolase activities in HIM.

AADAC [2] = target: T1, AADAC (Homo sapiens, UniProt P22760); assay: Hydrolase activity by recombinant human AADAC
T1 sequence (P22760 1-399): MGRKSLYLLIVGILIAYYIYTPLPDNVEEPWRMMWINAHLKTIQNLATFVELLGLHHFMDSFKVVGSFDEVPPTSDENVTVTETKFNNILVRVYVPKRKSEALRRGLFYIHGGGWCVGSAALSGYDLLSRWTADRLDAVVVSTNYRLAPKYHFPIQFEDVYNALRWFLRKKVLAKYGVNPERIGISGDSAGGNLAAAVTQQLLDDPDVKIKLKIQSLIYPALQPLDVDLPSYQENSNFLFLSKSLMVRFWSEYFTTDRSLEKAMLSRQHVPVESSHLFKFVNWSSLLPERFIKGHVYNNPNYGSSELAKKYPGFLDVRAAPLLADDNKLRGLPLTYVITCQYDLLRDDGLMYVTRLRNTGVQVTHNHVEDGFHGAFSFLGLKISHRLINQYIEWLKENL

[3] = design: method as in Qiu et al., 2013; conditions: rats and beagle dogs, ref Qiu et al., 2013, cited from earlier work
[4] = design: method as in Liu et al., 2017; conditions: healthy subjects, oral vicagrel tablets, during the sampling period; ref Liu et al., 2017; cited from earlier work
CES2 [5] = target: T2, CES2 (Homo sapiens, UniProt O00748); assay: Hydrolase activity by recombinant human CES2; type: in vitro ADME
T2 construct: purchased Cypex Ltd. (Scotland, United Kingdom)
T2 sequence (O00748 27-559): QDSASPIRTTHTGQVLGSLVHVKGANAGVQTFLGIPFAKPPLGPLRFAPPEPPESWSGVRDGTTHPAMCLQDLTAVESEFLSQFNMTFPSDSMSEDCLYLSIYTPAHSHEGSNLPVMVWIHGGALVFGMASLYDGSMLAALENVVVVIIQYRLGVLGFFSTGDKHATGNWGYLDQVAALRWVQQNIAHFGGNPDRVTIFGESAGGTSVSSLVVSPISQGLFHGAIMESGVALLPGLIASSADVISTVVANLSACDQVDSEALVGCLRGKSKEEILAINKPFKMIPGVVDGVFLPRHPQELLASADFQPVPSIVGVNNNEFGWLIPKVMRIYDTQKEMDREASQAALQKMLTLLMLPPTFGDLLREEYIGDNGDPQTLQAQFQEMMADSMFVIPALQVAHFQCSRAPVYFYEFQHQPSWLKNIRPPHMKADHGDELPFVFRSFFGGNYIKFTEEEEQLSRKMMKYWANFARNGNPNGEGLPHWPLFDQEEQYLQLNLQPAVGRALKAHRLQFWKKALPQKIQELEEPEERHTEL
Source text: (§4) (1) v = Vmax × S/(Km + S)

AADAC [6] = assay: Contribution of AADAC to vicagrel hydrolase activity in HIM (RAF method); type: in vitro ADME, human; conditions: phenacetin as probe
Source text: as §1
(3) VAADAC, HIM = Vrec−AADAC × […], HIM
as §2
(5) AADAC in HIM(%) = (VAADAC, HIM/VHIM) × 100
as §3

[7] = Hydrolase activity in dog intestine microsomes; type: in vitro ADME
Source text: as §4

[8] = Hydrolase activity (kinetics and marker substrates) in human liver microsomes; type: in vitro ADME
Source text: as §4

[9] = Hydrolase activity (kinetics and marker substrates) in human intestine microsomes
Source text: as §4

[10] = design: method as in Liu et al., 2017; conditions: healthy subjects; oral 5 mg vicagrel and 75 mg clopidogrel; ref Liu et al., 2017; cited from earlier work
CES1 = target: T3, CES1 (Homo sapiens, UniProt P23141); assay: Hydrolase activity by recombinant human CES1; type: in vitro ADME
T3 construct: purchased Cypex Ltd. (Scotland, United Kingdom)
T3 sequence (P23141 18-567): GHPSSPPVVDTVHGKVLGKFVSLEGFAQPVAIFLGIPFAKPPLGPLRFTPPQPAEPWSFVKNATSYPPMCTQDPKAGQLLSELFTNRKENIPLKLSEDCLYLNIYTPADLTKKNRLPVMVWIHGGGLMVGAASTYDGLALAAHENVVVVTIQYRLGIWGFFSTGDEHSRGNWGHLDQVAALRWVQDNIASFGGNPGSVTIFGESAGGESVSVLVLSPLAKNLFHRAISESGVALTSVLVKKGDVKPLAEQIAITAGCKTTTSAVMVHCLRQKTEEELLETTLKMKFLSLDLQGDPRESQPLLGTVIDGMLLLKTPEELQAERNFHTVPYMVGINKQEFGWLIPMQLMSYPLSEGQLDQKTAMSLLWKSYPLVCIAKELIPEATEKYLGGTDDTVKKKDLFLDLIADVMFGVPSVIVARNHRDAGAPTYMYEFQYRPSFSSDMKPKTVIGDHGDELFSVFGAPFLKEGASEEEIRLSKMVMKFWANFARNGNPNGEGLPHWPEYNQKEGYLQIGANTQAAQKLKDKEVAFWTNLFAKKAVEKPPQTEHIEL
Source text: as §4

Structure (SMILES): COC(=O)[C@H](c1ccccc1Cl)N1CCc2sc(OC(C)=O)cc2C1 [vicagrel, Vicagrel]
- Contribution of CES2 to vicagrel hydrolysis (CES2 [1]; HIM, RAF method, procaine as probe): 44.2%
- Sum of the contributions of CES2 and AADAC to vicagrel hydrolysis (CES2 [1]; HIM, RAF method, CES2 plus AADAC): 97.3%
- Calculated vicagrel hydrolase activity of CES2 in HIM (VCES2, HIM) (CES2 [1]; Vrec-CES2 × RAFCES2, HIM): 21.2 nmol/min/mg protein
- microsomal CLint (AADAC [2]; human, recombinant human AADAC, pH 7.4): 39000 ± 3100 µL/min/mg
- Hydrolase activity (vicagrel), Vrec-AADAC (AADAC [2]; recombinant AADAC): 21.8 nmol/min/mg
- Vmax of vicagrel hydrolysis (AADAC [2]; recombinant AADAC 0.015 mg/mL, 2 min): 381.7 ± 24.7 nmol/min/mg protein
- Production of H4 from vicagrel relative to clopidogrel ([3]; oral, same dose): four to six times higher
- Production of 2-oxo-clopidogrel from vicagrel relative to clopidogrel [3]: about six times
- Parent drug in human plasma [4]: undetectable
- microsomal CLint (CES2 [5]; human, recombinant human CES2, pH 7.4, recombinant CES2, calculated as Vmax/Km, read-out: CLint of vicagrel hydrolysis): 46100 ± 3100 µL/min/mg
- Hydrolase activity (vicagrel), Vrec-CES2 (CES2 [5]; recombinant CES2): 26.1 nmol/min/mg
- Vmax of vicagrel hydrolysis (CES2 [5]; recombinant CES2 0.01 mg/mL, 1 min): 331.2 ± 14.9 nmol/min/mg protein
- Contribution of AADAC to vicagrel hydrolysis (AADAC [6]): approximately 53%
- Contribution of AADAC to vicagrel hydrolysis (AADAC [6]; listed as Vicagrel): 53.1%
- Vmax of vicagrel hydrolysis ([7]; DIM 0.01 mg/mL, 1 min): 171.4 ± 3.9 nmol/min/mg protein
- Km at 1 min ([7]; dog, dog intestine microsomes, pH 7.4, DIM 0.01 mg/mL, 1 min, read-out: Km of vicagrel hydrolysis): 8.37 ± 0.69 µM
- microsomal CLint ([7]; dog, dog intestine microsomes, pH 7.4, DIM, calculated as Vmax/Km, read-out: CLint of vicagrel hydrolysis): 20500 ± 1300 µL/min/mg
- Hydrolase activity (vicagrel) ([8]; HLM): 96.5 nmol/min/mg
- Vmax of vicagrel hydrolysis ([8]; HLM 0.01 mg/mL, 1 min): 917.6 ± 23.5 nmol/min/mg protein
- Km at 1 min ([8]; human, human liver microsomes, pH 7.4, HLM 0.01 mg/mL, 1 min, formation of 2-oxo-clopidogrel, read-out: Km of vicagrel hydrolysis): 7.18 ± 0.66 µM
- Vmax of vicagrel hydrolysis ([9]; HIM 0.01 mg/mL, 1 min): 347.2 ± 6.4 nmol/min/mg protein
- Hydrolase activity (vicagrel), VHIM ([9]; human, 1 min, pH 7.4): 48.0 nmol/min/mg
- microsomal CLint ([9]; human, microsomes, pH 7.4): 53100 ± 1040 µL/min/mg
- Km at 1 min ([9]; human, pH 7.4): 6.54 ± 0.45 µM
- Antiplatelet effects versus clopidogrel [10]: Comparable antiplatelet effects
- microsomal CLint (CES1; human, recombinant human CES1, pH 7.4, recombinant CES1, calculated as Vmax/Km, read-out: CLint of vicagrel hydrolysis): 29000 ± 2300 µL/min/mg
- Hydrolase activity (vicagrel) (CES1; recombinant CES1): 17.3 nmol/min/mg
- Vmax of vicagrel hydrolysis (CES1; recombinant CES1 0.01 mg/mL, 2 min): 264.0 ± 16.6 nmol/min/mg protein
